Assay results as given in PubChem BioAssay AID1963851 (Molecular Pharmacology Branch, DTP, NCI, 2024).

Tested on: 188146-221-R-J1-PDC complex spheroid viability
Assay: Anticancer human tumor 188146-221-R-J1-PDC patient-derived colon adenocarcinoma cell line growth inhibition [POLQ]
Conditions: for IC50: curve of first compound; for viability, T/C: stronger effect = lower value
Experimental: Multicellular complex tumor spheroid response to Polymerase (POL) inhibitors (novobiocin, ART-558, RP6685) in combination with a variety of drugs and investigational agents in selected tumor cell lines
The POL inhibitors (novobiocin, ART-558, and RP6685) were evaluated both individually and in combination with standard of care and investigational anticancer small molecules within a complex spheroid model of solid tumors. . Complex spheroids include a stromal component modeled by human endothelial cells (HUVEC) and fibroblasts modeled by human mesenchymal stem cells (MSCs). The concentration ranges selected for each drug and investigational agent were based upon clinically achievable concentrations if the clinical Cmax of the agent was known.
Compounds. The drugs and investigational agents: novobiocin (NSC847541), ART-558 (NSC835418), RP-6685 (NSC848927), peposertib (NSC802822), ceralasertib (NSC780249), elimusertib (NSC800525), camonsertib (NSC841442), AZD-1390 (NSC803789), olaparib (NSC753686), talazoparib (NSC767125), rucaparib (NSC756644), sotorasib (NSC818433), MRTX-1133 (NSC836407), SN-38 (NSC673596), topotecan (NSC609699), epotoside (NSC141540), doxorubicin (NSC123127), gemcitabine (NSC613327), 5-fluorouracil (NSC19893), paclitaxel (NSC125973), vemurafenib (NSC761431), MSA-2 (NSC828583), SN-011 (NSC837082), adavosertib (NSC754352), prexasertib (NSC758257), carboplatin (NSC241240) and oxaliplatin (NSC266046), were obtained from the National Cancer Institute (NCI) Developmental Therapeutics Program Chemical Repository (21). The FDA-approved anticancer drug set is available from the Developmental Therapeutics Program at https://dtp.cancer.gov/organization/dscb/obtaining/. […] The stock solutions were prepared in dimethyl sulfoxide (DMSO, Sigma-Aldrich, St. Louis, MO, cat. D2650), except for the platinum compounds which were prepared in saline (Quality Biological, Gaithersburg, MD, cat. 114-055-101), at 800-fold the tested concentration and stored at -70 degrees C prior to their use. All drugs and investigational agents were tested over a range starting from a high concentration at or near the clinical Cmax and decreasing in half-log increments. If the clinical Cmax for an agent had not been determined, the highest concentration tested was 10 microM, except for SN-38, which was tested at a high concentration of 1 microM.
Cell Culture. All cells were maintained in an incubator at 37 degrees C and 5% CO2 with 95% humidity. The PDC lines were cultured according to standard operating procedures established by the NCI PDMR (https://pdmr.cancer.gov). Table 3 of the manuscript, lists the cell lines along with the number of the three cell types plated to form the mct-spheroids and media for tumor cell growth. After thawing, all PDC lines, except 997537-175-T-J1-PDC and 415267-285-R-J2-PDC, were cultured in Matrigel-coated flasks prepared with a working solution of 1X Ham's F-12 nutrient mix, without supplementation (Thermo Fisher Scientific, cat. 11765054), 100 U/mL penicillin-streptomycin (Thermo Fisher Scientific, cat. 15140122), and 2.5% Matrigel (Corning Inc., Corning, NY, cat. 354248) for the first three passages. The two PDC lines 997537-175-T-J1-PDC and 415267-285-R-J2-PDC were cultured on uncoated flasks. The 857933-349-R-J2-PDC line was cultured in 6C/Colon 1B media containing advanced DMEM/F-12 (Thermo Fisher Scientific, cat. 12634028), 10 mM HEPES (Thermo Fisher Scientific, cat. 15630080), 1X GlutaMAX supplement (Thermo Fisher Scientific, cat. 35050061), 0.1 mg/mL primocin (InvivoGen, San Diego, CA, cat. ant-pm-2), 10% defined fetal bovine serum, heat inactivated (HyClone Laboratories Inc., Logan, UT, cat. SH30070.03HI), 50% L-WRN conditioned media (ATCC, cat. CRL-3276), 1.25 mM N-Acetyl-L-cysteine (Sigma-Aldrich, cat. A9165), 10 mM nicotinamide (Sigma-Aldrich, cat. N0636), 1X B-27 supplement (Thermo Fisher Scientific, cat. 17504044), 1X N-2 supplement (Thermo Fisher Scientific, cat. […]

[1] = second compound 0.0316 µM, first compound 0.0316 µM
[2] = second compound 0.0316 µM, first compound 0.1 µM
[3] = second compound 0.0316 µM, first compound 0.316 µM
[4] = second compound 0.0316 µM, first compound 1 µM
[5] = second compound 0.1 µM, first compound 0.0316 µM
[6] = second compound 0.1 µM, first compound 0.1 µM
[7] = second compound 0.1 µM, first compound 0.316 µM
[8] = second compound 0.1 µM, first compound 1 µM
[9] = second compound 0.316 µM, first compound 0.0316 µM
[10] = second compound 0.316 µM, first compound 0.1 µM
[11] = second compound 0.316 µM, first compound 0.316 µM
[12] = second compound 0.316 µM, first compound 1 µM
[13] = second compound 1 µM, first compound 0.0316 µM
[14] = second compound 1 µM, first compound 0.1 µM
[15] = second compound 1 µM, first compound 0.316 µM
[16] = second compound 1 µM, first compound 1 µM
[17] = second compound 3.16 µM, first compound 0.0316 µM
[18] = second compound 3.16 µM, first compound 0.1 µM
[19] = second compound 3.16 µM, first compound 0.316 µM
[20] = second compound 3.16 µM, first compound 1 µM
[21] = second compound 10 µM, first compound 0.0316 µM
[22] = second compound 10 µM, first compound 0.1 µM
[23] = second compound 10 µM, first compound 0.316 µM
[24] = second compound 10 µM, first compound 1 µM
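Further: spheroids exposed to compounds for seven days.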
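Wherever viability, T/C is given: 100% = DMSO vehicle control viability.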

`COc1ccc([C@@H](O)c2cc(-c3ncnc4cc(N5CCOCC5)ccc34)c(F)cc2Cl)nn1` + Cc1cccc(N(C)C(=O)C2C(O)CCN2c2nc(C)cc(C(F)(F)F)c2C#N)c1 gave an IC50 (second compound 0.0316 µM) of 5810 nM, an IC50 (second compound 0.1 µM) of 5620 nM and an IC50 (second compound 0.316 µM) of 4690 nM. It also gave an IC50 (second compound 1 µM) of 4670 nM, an IC50 (second compound 3.16 µM) of 4910 nM and an IC50 (second compound 10 µM) of 1860 nM. It also gave a viability, T/C [1] of 97.6%, a viability, T/C [2] of 98% and a viability, T/C [3] of 87.9%. It also gave a viability, T/C [4] of 89.2%, a viability, T/C (second compound 0.0316 µM, first compound 3.16 µM) of 72% and a viability, T/C (second compound 0.0316 µM, first compound 10 µM) of 30.3%. It also gave a viability, T/C [5] of 93.6%, a viability, T/C [6] of 111% and a viability, T/C [7] of 94.3%. The viability, T/C [8] was 80.4%, the viability, T/C (second compound 0.1 µM, first compound 3.16 µM) was 61.7% and the viability, T/C (second compound 0.1 µM, first compound 10 µM) was 39.4%. For the same molecule, the viability, T/C [9] was 100%, the viability, T/C [10] was 101% and the viability, T/C [11] was 100%. It also gave a viability, T/C [12] of 94%, a viability, T/C (second compound 0.316 µM, first compound 3.16 µM) of 59.4% and a viability, T/C (second compound 0.316 µM, first compound 10 µM) of 32%. For the same molecule, the viability, T/C [13] was 97.9%, the viability, T/C [14] was 94.3% and the viability, T/C [15] was 94.4%. The viability, T/C [16] was 78.7%, the viability, T/C (second compound 1 µM, first compound 3.16 µM) was 59.6% and the viability, T/C (second compound 1 µM, first compound 10 µM) was 32.5%. The viability, T/C [17] was 97.3%, the viability, T/C [18] was 93.3% and the viability, T/C [19] was 90.5%. The viability, T/C [20] was 73.1%, the viability, T/C (second compound 3.16 µM, first compound 3.16 µM) was 61.7% and the viability, T/C (second compound 3.16 µM, first compound 10 µM) was 33.8%. For the same molecule, the viability, T/C [21] was 88.2%, the viability, T/C [22] was 80.8% and the viability, T/C [23] was 85.9%. It also gave a viability, T/C [24] of 56.3%, a viability, T/C (second compound 10 µM, first compound 3.16 µM) of 51.9% and a viability, T/C (second compound 10 µM, first compound 10 µM) of 36.9%.
In the case of `COc1cccc(OCCCN)c1-c1cc(Nc2cnc(C#N)cn2)n[nH]1` + Cc1cccc(N(C)C(=O)C2C(O)CCN2c2nc(C)cc(C(F)(F)F)c2C#N)c1, the IC50 (second compound 0.0316 µM) is reported as 55.5 nM, the IC50 (second compound 0.1 µM) is reported as 60.9 nM and the IC50 (second compound 0.316 µM) is reported as 51.5 nM. For the same molecule, the IC50 (second compound 1 µM) was 41.2 nM, the IC50 (second compound 3.16 µM) was 47.3 nM and the IC50 (second compound 10 µM) was 22.2 nM. It also gave a viability, T/C (second compound 0.0316 µM, first compound 0.00316 µM) of 100%, a viability, T/C (second compound 0.0316 µM, first compound 0.01 µM) of 103% and a viability, T/C [1] of 61.5%. For the same molecule, the viability, T/C [2] was 36.1%, the viability, T/C [3] was 18.5% and the viability, T/C [4] was 12.1%. For the same molecule, the viability, T/C (second compound 0.1 µM, first compound 0.00316 µM) was 99.9%, the viability, T/C (second compound 0.1 µM, first compound 0.01 µM) was 90% and the viability, T/C [5] was 75.8%. It also gave a viability, T/C [6] of 30.7%, a viability, T/C [7] of 15.9% and a viability, T/C [8] of 14.2%. It also gave a viability, T/C (second compound 0.316 µM, first compound 0.00316 µM) of 105%, a viability, T/C (second compound 0.316 µM, first compound 0.01 µM) of 89.7% and a viability, T/C [9] of 66%. The viability, T/C [10] was 29.6%, the viability, T/C [11] was 17.4% and the viability, T/C [12] was 13.6%. It also gave a viability, T/C (second compound 1 µM, first compound 0.00316 µM) of 113%, a viability, T/C (second compound 1 µM, first compound 0.01 µM) of 104% and a viability, T/C [13] of 54.4%. It also gave a viability, T/C [14] of 29%, a viability, T/C [15] of 17.1% and a viability, T/C [16] of 12.6%. It also gave a viability, T/C (second compound 3.16 µM, first compound 0.00316 µM) of 91.7%, a viability, T/C (second compound 3.16 µM, first compound 0.01 µM) of 82.1% and a viability, T/C [17] of 62.8%. The viability, T/C [18] was 27.7%, the viability, T/C [19] was 15.6% and the viability, T/C [20] was 14%. The viability, T/C (second compound 10 µM, first compound 0.00316 µM) was 96%, the viability, T/C (second compound 10 µM, first compound 0.01 µM) was 75.3% and the viability, T/C [21] was 37.3%. For the same molecule, the viability, T/C [22] was 24.4%, the viability, T/C [23] was 16.9% and the viability, T/C [24] was 14.6%.
